Values joined by “and” are separate entries in the source; they are usually repeats but may differ in a detail not shown here. Equal entries are not always repeated. Where two headings read alike, the source gives them in different places. Marks after values point to notes of the source that are not given here. Bounds are passed on as bounds.

Results on 17 compounds are retold here after patent US11919896B2, “[1,2,4]triazolo[1,5-a]pyridine compound as JAK inhibitor and use thereof” (Zhuhai United Laboratories Co., Ltd., priority 2018, dated 2024).

In data set [1] the target is TYK2 (Homo sapiens (Human), UniProt P29597). As to the kind of experiment: In vitro kinase activity test, TYK2(h) enzyme reaction. The class given is biochemical.
TYK2, sequence (P29597 whole entry): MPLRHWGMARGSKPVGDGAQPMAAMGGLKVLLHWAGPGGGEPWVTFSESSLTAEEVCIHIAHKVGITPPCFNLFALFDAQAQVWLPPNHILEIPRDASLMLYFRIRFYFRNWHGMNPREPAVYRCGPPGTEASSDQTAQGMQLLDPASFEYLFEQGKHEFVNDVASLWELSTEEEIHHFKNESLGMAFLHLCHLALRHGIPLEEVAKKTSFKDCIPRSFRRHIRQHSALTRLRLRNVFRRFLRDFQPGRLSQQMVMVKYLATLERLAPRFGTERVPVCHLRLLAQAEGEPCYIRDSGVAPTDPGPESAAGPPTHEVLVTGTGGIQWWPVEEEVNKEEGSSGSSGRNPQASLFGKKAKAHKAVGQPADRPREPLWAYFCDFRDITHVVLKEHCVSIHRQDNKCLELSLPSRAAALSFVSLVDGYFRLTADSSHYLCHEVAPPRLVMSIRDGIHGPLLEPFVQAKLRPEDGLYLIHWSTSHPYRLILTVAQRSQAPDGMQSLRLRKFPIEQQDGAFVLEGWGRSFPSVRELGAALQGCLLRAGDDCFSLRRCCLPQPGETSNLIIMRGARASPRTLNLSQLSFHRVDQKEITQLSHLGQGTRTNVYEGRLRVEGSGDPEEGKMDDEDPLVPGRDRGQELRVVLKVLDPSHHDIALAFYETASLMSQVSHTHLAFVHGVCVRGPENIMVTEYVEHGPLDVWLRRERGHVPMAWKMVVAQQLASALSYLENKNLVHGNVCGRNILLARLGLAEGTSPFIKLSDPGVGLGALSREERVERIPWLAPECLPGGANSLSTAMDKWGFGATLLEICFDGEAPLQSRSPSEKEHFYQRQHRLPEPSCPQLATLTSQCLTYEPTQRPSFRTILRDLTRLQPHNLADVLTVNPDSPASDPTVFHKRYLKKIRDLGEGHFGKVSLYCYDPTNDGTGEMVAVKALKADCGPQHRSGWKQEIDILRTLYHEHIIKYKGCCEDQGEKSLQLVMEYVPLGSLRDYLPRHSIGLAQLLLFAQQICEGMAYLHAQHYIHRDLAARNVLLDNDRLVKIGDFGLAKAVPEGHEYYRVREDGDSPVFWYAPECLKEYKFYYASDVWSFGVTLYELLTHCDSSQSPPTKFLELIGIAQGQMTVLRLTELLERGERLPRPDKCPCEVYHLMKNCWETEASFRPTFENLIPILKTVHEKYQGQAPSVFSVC
Procedure: (§1) Recombinant human JAK1, JAK2, JAK3, Tyk2 protease, most of the apparatuses and reagents were supplied by Eurofins (UK).
(§2) All the compounds were prepared into 100% DMSO solution and the concentration reached final measured concentration of 50 times. The test compound was diluted by a 3-fold concentration gradient, and the final concentration was 9 concentrations from 10 μM to 0.001 μM. The content of DMSO in the detect reaction was 2%. The stock solution of this compound was added into wells as a first component, then the other components were added as the following detailed process.
Enzyme Reaction of TYK2(h)
(§3) Mixture of Mg/ATP was added to start reaction, which was stopped by adding 0.5% phosphoric acid after 40 minutes incubation.
Data set [2] addresses JAK1 (Homo sapiens (Human), UniProt P23458). As to the kind of experiment: In vitro kinase activity test, JAK1(h) enzyme reaction. The class given is biochemical.
Procedure: (§4) Experiment 1: In Vitro Test of Activities of Jak1, Jak2, Jak3, Tyk2 Kinases
as §1, §2
Enzyme Reaction of JAK1(h)
Mixture of Mg/ATP was added to start reaction, which was stopped by adding 0.5% phosphoric acid after 40 minutes incubation at room temperature.
In data set [3] the target is JAK2 (Homo sapiens (Human), UniProt O60674). The experiment in a line: In vitro kinase activity test, JAK2(h) enzyme reaction. Format: biochemical.
JAK2, sequence (O60674 whole entry): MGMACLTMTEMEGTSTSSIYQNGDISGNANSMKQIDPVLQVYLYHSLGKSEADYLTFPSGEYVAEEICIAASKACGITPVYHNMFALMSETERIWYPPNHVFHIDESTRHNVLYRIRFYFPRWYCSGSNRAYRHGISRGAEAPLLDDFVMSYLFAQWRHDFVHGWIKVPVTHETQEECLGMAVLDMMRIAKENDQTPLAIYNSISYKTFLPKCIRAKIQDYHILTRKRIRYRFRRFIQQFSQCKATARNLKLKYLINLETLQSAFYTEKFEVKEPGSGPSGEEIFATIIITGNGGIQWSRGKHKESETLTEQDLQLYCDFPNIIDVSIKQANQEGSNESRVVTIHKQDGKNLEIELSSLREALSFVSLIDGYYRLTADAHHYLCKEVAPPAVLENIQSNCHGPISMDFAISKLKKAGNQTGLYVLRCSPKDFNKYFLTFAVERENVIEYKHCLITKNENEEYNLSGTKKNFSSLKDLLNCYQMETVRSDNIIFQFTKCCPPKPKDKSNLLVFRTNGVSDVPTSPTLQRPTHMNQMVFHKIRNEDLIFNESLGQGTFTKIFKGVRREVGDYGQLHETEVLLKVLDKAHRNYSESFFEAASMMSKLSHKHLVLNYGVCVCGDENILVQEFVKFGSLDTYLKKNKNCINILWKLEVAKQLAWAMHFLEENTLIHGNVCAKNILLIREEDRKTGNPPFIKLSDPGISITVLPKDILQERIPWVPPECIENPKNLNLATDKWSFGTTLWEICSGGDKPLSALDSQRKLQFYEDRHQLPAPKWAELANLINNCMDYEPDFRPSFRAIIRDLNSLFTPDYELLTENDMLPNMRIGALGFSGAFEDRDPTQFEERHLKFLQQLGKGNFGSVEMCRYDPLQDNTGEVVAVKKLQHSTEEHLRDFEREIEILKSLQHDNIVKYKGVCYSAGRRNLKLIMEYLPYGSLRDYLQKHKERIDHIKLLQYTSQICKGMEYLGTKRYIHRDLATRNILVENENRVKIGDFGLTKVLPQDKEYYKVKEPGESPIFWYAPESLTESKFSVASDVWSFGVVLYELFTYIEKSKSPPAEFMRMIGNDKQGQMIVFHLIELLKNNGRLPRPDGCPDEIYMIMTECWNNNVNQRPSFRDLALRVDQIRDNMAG
Procedure: as §4, §1, §2
Enzyme Reaction of JAK2(h)
as §3
Data set [4] concerns the target JAK3 (Homo sapiens (Human), UniProt P52333). As to the kind of experiment: In vitro kinase activity test, JAK3(h) enzyme reaction. Format: biochemical.
Procedure: as §1, §2
Enzyme Reaction of JAK3(h)
as §3
For data set [5], the system named is collagen-induced arthritis (CIA) in mice. The class given is in vivo, DBA/1 mice. On the set-up: key to Average clinical score: score 0-4 per limb, max 16 per animal. The method, then: Experiment 3: In Vivo Efficacy Study of Collagen-Induced Arthritis (CIA) in Mice
1. Type II Collagen/Complete Freund's Adjuvant Immune
Preparation of acetic acid: 2N acetic acid was diluted to 100 mM, filtered by 0.22 micron filter membrane, and stored at 4° C.
Bovine type 2 collagen (CII) was dissolved in 100 mM acetic acid solution, then stored overnight at 4° C. Final concentration of the collagen is 8 mg/ml.
Preparation of emulsion: the overnight stored CII solution was mixed with equal volume of complete Freund's adjuvant, and homogenized on ice on a high-speed homogenizer at 30,000 revolutions per minute for approximately 60 minutes until the solution forms a stable emulsion.
2. Induction of Arthritis:
Mice were randomly divided into different treatment groups. The day for the first immunization is recorded as day 0, and the subsequent days are marked in order.
DBA/1 mice were anesthetized with isoflurane and injected with […] prepared collagen emulsion (containing […] CII) subcutaneously (2-3 cm from the root of the tail). At day 21, the tail was injected with the same volume of collagen emulsion in the same way. The mice in the normal group was not immunized.
3. Designs of Administration and Dosages
At day 28, when average clinical score is about […] with moderate incidence were selected ad randomly divided into 5 treatment groups based on body weights and scores, with each group having 8 mice.
Dexamethasone (Dex.) was used as a reference drug for measuring whether the model was successfully established, with a dose of 0.3 mg/kg (a commonly used dose in a CIA model). […] They were administered twice a day for a total of 14 days.
4. Measuring of Incidence Index of Arthritis
Clinical observation: from 7 days before immunization to the 21st day after immunization, the basic health status and weight changes of DBA/1 mice was observed daily (recorded once a week). After the 22nd day, the health status, the incidence circumstances, and weight changes of the mice was observed every day (recorded at least three times a week) until the end of the experiment.
Clinical scoring: the incidence of the mice was observed every day after boosting the immune function. After the mice was attacked (showing clinical symptoms of arthritis), the incidence was scored from 0-4 as scoring standard according to different levels of the disease (redness, joint deformation). The highest score for each limb is 4, and the highest score for each animal is 16. The scoring was performed three times a week.
The experimental data is expressed as mean standard error (Mean SEM), and the area under the curve (AUC) is analyzed by one-way ANOVA. P<0.05 is considered to be significant.

The subject of data set [6] is adjuvant-induced arthritis rat model. The conditions noted are these: AIA rats, 30 mg/kg p.o. bid.
The mark [7] stands for this setting: CIA mice, 0.3 mg/kg p.o. qd, day 21.
[8] abbreviates: CIA mice, 0.3 mg/kg p.o. qd, day 24.
Setting [9] is: CIA mice, 0.3 mg/kg p.o. qd, day 27.
[10] abbreviates: CIA mice, 0.3 mg/kg p.o. qd, day 28.
The mark [11] stands for this setting: CIA mice, 0.3 mg/kg p.o. qd, day 29.
Setting [12] is: CIA mice, 0.3 mg/kg p.o. qd, day 31.
Setting [13] is: CIA mice, 0.3 mg/kg p.o. qd, day 31, listed as Dex.
[14] abbreviates: CIA mice, 0.3 mg/kg p.o. qd, day 34.
Where [15] appears, read: CIA mice, 0.3 mg/kg p.o. qd, day 36.
The mark [16] stands for this setting: CIA mice, 0.3 mg/kg p.o. qd, day 38.
Where [17] appears, read: CIA mice, 0.3 mg/kg p.o. qd, day 41.

JAK1, sequence (P23458 whole entry): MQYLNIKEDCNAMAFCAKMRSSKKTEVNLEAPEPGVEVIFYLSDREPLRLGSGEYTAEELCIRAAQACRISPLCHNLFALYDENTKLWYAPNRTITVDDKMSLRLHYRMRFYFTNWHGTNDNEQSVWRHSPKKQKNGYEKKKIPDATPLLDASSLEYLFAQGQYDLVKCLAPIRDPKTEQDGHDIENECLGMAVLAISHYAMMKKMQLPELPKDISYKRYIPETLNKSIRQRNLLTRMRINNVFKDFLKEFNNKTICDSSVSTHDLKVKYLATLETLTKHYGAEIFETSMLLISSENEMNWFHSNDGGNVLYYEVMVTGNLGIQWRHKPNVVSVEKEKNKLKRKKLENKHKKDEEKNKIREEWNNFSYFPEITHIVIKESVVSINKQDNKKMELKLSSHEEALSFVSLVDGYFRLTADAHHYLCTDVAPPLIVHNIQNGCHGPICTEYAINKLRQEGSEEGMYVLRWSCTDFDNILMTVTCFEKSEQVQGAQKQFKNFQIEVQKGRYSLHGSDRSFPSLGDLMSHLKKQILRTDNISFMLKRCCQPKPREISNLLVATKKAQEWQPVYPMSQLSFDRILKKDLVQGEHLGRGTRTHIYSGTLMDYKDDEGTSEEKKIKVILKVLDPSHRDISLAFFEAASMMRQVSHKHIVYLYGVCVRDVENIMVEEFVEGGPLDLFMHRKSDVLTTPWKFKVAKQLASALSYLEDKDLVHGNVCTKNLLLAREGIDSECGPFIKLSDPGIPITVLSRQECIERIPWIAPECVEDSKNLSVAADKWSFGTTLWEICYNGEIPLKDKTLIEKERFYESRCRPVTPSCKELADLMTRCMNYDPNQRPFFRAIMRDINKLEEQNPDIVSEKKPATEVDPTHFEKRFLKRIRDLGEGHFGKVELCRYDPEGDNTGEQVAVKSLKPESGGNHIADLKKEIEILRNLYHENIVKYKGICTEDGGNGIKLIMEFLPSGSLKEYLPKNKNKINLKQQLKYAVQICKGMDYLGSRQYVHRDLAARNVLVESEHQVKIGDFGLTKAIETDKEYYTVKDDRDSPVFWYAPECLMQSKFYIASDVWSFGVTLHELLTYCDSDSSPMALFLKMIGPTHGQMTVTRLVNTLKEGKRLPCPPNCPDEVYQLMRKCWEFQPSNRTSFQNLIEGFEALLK
JAK3, sequence (P52333 whole entry): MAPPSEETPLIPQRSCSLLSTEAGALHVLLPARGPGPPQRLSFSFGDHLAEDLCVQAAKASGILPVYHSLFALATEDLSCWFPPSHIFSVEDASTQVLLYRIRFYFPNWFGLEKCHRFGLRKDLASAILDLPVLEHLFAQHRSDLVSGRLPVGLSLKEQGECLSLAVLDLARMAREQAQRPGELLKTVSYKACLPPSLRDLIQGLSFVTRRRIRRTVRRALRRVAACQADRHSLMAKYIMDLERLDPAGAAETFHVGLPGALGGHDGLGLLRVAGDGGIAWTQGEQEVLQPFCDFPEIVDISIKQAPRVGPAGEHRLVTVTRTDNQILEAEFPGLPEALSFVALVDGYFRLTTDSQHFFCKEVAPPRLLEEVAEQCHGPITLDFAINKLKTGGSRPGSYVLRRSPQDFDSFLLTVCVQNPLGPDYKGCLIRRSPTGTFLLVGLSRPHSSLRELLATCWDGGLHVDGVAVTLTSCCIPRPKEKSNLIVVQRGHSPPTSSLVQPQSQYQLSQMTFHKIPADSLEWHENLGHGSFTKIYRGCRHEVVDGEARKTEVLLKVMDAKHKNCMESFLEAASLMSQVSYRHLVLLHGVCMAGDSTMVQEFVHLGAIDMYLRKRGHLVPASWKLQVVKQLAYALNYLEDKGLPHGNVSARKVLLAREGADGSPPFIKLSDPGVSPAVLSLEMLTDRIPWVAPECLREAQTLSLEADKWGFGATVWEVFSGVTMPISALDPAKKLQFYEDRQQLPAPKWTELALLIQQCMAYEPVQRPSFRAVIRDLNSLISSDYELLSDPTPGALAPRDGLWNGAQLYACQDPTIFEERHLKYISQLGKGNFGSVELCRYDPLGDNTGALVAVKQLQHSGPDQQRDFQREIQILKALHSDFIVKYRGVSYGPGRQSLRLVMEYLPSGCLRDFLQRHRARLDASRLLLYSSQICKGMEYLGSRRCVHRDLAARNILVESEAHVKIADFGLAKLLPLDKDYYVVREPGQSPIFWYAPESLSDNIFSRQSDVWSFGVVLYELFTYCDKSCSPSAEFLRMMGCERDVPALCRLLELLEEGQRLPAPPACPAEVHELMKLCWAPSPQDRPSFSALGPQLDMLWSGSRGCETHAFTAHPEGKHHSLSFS

As usually defined, the IC50 is the concentration at which inhibition is half-maximal. On to `O=C(Nc1nc2cccc(C3CCC4(CC3)CN(C(=O)[C@@H]3CC3(F)F)C4)n2n1)[C@H]1CC1(F)F` [Compound 8-6], for which the IC50 in data set [1] stood at 127 nM; in data set [2], 14 nM; in data set [3] it was 110 nM; in data set [4], 7640 nM.
Take `O=C(Nc1nc2cccc([C@@H]3CCC4(C3)CN(C(=O)[C@@H]3CC3(F)F)C4)n2n1)C1CC1` [Compound 7-8]: the figures for the concentration for half-maximal inhibition (IC50) in data set [1], in data set [2] and in data set [4] were 404 nM, 176 nM and more than 10000 nM, respectively.
Take `N#CCC(=O)N1CC2(CCC(F)(c3cccc4nc(NC(=O)C5CC5)nn34)CC2)C1` [Compound 4-6]: the IC50 in data set [1] was 307 nM; in data set [2], 170 nM; in data set [3], 2010 nM; in data set [4], 8450 nM.
For `N#CCN1CC2(CCC(c3cccc4nc(NC(=O)[C@@H]5CC5(F)F)nn34)CC2)C1` [Compound 9-6] the same measures were 1390 nM, 432 nM, 1170 nM and more than 10000 nM.
For the compound `C[C@@H]1C[C@H]2[C@@H]3CCC4=CC(=O)C=C[C@]4(C)[C@@]3(F)[C@@H](O)C[C@]2(C)[C@@]1(O)C(=O)CO` [Dexamethasone], the “Inhibition rate (clinical score AUC vs blank group)” value in data set [5] (CIA mice, 0.3 mg/kg p.o. qd) worked out at 97.3%; in data set [5] (CIA mice, 0.3 mg/kg p.o. qd, listed as Dex), 97.3%. In addition, the “AUC ± SEM of clinical score (AUC of incidence)” value in data set [5] (CIA mice, 0.3 mg/kg p.o. qd, administration period) was determined as 1.38 ± 0.81. Further, the Average clinical score was 0.00 ± 0.00 in data set [5] (setting [7]); 0.00 ± 0.00 in data set [5] (setting [8]); “about 0.3” in data set [5] (setting [9]); 0.25 ± 0.16 in data set [5] (CIA mice, 0.3 mg/kg p.o. qd, day 27, listed as Dex); 0.50 ± 0.27 in data set [5] (setting [10]); 0.25 ± 0.16 in data set [5] (setting [11]). Besides, the Average clinical score was found to be 0 in data set [5] (setting [12]); 0.00 ± 0.00 in data set [5] (setting [13]); 0.00 ± 0.00 in data set [5] (setting [14]); 0.00 ± 0.00 in data set [5] (setting [15]); 0.00 ± 0.00 in data set [5] (setting [16]); 0.00 ± 0.00 in data set [5] (setting [17]). Further, the Incidence of arthritis in data set [5] (setting [7]) came out at 0%; in data set [5] (setting [8]), 0%; in data set [5] (setting [9]), 25%; in data set [5] (setting [10]), 38%; in data set [5] (setting [11]), 25%; in data set [5] (setting [12]), 0%. In addition, the Incidence of arthritis in data set [5] (setting [13]), in data set [5] (setting [14]), in data set [5] (setting [15]), in data set [5] (setting [16]) and in data set [5] (setting [17]) was 0% throughout. For the same compound, in data set [5] (mouse, in vivo, po, 0.3 mg/kg), the “Effect on the weight of mice (comparison between groups)” value is “largest weight loss”.
Consider `O=C(Nc1nc2cccc(C3CCC4(CC3)CCN(C(=O)[C@@H]3CC3(F)F)C4)n2n1)C1CC1` (some centres unmarked) [Compound 5-8], for which the IC50 in data set [1] was found to be 692 nM; in data set [2], 75 nM; in data set [3], 789 nM; in data set [4], 7350 nM.
Turning to `N#CCCN1CC2(CCC(c3cccc4nc(NC(=O)C5CC5)nn34)CC2)C1` [Compound 1-17], the IC50 is 371 nM in data set [1], 65 nM in data set [2] and more than 10000 nM in data set [4].
`O=C(Nc1nc2cccc([C@H]3CCC4(C3)CN(C(=O)[C@@H]3CC3(F)F)C4)n2n1)C1CC1` [Compound 7-7]: the IC50 was 830 nM in data set [1], 63 nM in data set [2] and more than 10000 nM in data set [4].
`N#CCN1CC2(CCC(c3cccc4nc(NC(=O)C5CC5)nn34)CC2)C1` [Compound 1-16]: the figures for the IC50 in data set [1], in data set [2] and in data set [4] were 581 nM, 114 nM and more than 10000 nM, respectively.
Turning to `O=C(Nc1nc2cccc(C3CCC4(CC3)CN(C(=O)[C@@H]3CC3(F)F)C4)n2n1)[C@@H]1CC1(F)F` [Compound 9-3], the IC50 in data set [1] is 105 nM; in data set [2] it was 7 nM; in data set [3] it was 292 nM; in data set [4] it was more than 10000 nM.
For `O=C(Nc1nc2cccc([C@@H]3CCC4(CCN(C(=O)[C@@H]5CC5(F)F)CC4)C3)n2n1)C1CC1` [Compound 6-8], the IC50 in data set [1] was 570 nM; in data set [2], 381 nM; in data set [4], more than 10000 nM.
As to `N#CCN1CC2(CCC(c3cccc4nc(NC(=O)[C@H]5CC5(F)F)nn34)CC2)C1` [Compound 8-9], the IC50 is 1330 nM in data set [1], 52 nM in data set [2], 3670 nM in data set [3] and more than 10000 nM in data set [4].
Take `CC(C)(C#N)C(=O)N1CC2(CCC(c3cccc4nc(NC(=O)C5CC5)nn34)CC2)C1` [Compound 1-15]: the IC50 is 106 nM in data set [1], 20 nM in data set [2] and 9670 nM in data set [4].
`O=C(Nc1nc2cccc([C@H]3CCC4(CCN(C(=O)[C@@H]5CC5(F)F)CC4)C3)n2n1)C1CC1` [Compound 6-7]: the IC50 in data set [1] is 829 nM; in data set [2], 63 nM; in data set [4], 9390 nM.
Turning to `N#CCC(=O)N1CCC2(CCC(c3c(F)ccc4nc(NC(=O)C5CC5)nn34)CC2)CC1` [Compound 10-5], the IC50 in data set [1] was found to be 430 nM; in data set [2], 336 nM; in data set [3] it was 812 nM; in data set [4], 5410 nM.
As to `O=C(Nc1nc2cccc(C3CCC4(CC3)CCN(C(=O)[C@@H]3CC3(F)F)C4)n2n1)C1CC1` (some centres unmarked) [Compound 5-7], the 50% inhibitory concentration (IC50) in data set [1] was 67 nM; in data set [2] it was 31 nM; in data set [3] it was 324 nM; in data set [4], 5760 nM.
Consider `O=C(Nc1nc2cccc(-c3ccc(CN4CCS(=O)(=O)CC4)cc3)n2n1)C1CC1` [Filgotinib], for which the “Inhibition rate of total pathological score” value in data set [6] stood at 5%. For the same compound, the “Clinical scoring, average” value was 6.0 in data set [6] (day 13); 6.6 in data set [6] (day 15); 6.3 in data set [6] (day 17); 5.8** in data set [6] (day 20); 5.5*** in data set [6] (day 22); 5.4**** in data set [6] (day 24). Besides, the “Feet volume, average” value in data set [6] (day 13) is 1.9 mL; in data set [6] (day 15), 2.2 mL; in data set [6] (day 17), 2.0** mL; in data set [6] (day 20), 1.9**** mL; in data set [6] (day 22), 2.0**** mL; in data set [6] (day 24) it was 2.0**** mL. In addition, the “Feet volume, average” value in data set [6] (day 27) is 1.91 mL and 1.9**** mL. Further, the “Pathology Scoring: Bone resorption” value in data set [6] (day 27, right hind leg) was found to be 3.6 ± 0.2. Moreover, the “Pathology Scoring: Pannus formation” value in data set [6] (day 27, right hind leg) was determined as 3.9 ± 0.1. For the same compound, in data set [6] (day 27, right hind leg), the “Pathology Scoring: Total score” value was 15.2±0.49 and 15.2 ± 0.5. Also, in data set [6] (day 27, right hind leg), the “Pathology Scoring: articular injury” value is 3.7 ± 0.2.
